Laboratory results published in PubChem BioAssay AID1963867 (Molecular Pharmacology Branch, DTP, NCI, 2024).

Tested on: KRAS-mutant PDC tumor spheroid with HUVEC/MSC, viability
Experiment: Anticancer human tumor 327498-153-R-J2-PDC patient-derived uterine carcinosarcoma cell line growth inhibition [KRAS2]
Settings: for viability, T/C: stronger effect = lower value
Outline: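 KRAS-mutant tumor cells were grown as spheroids with HUVEC endothelial cells and human MSCs as stroma. Targeted agents were tested alone and with KRAS pathway inhibitors. Doses started at or near clinical Cmax, or 10 microM, descending half-log.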

[1] = curve of first compound, second compound 0.1 µM
[2] = curve of first compound, second compound 0.316 µM
[3] = curve of first compound, second compound 1 µM
[4] = curve of first compound, second compound 3.16 µM
[5] = curve of first compound, second compound 10 µM
[6] = second compound 0.1 µM, first compound 0.0316 µM
[7] = second compound 0.1 µM, first compound 0.1 µM
[8] = second compound 0.1 µM, first compound 0.316 µM
[9] = second compound 0.1 µM, first compound 1 µM
[10] = second compound 0.1 µM, first compound 3.16 µM
[11] = second compound 0.1 µM, first compound 10 µM
[12] = second compound 0.316 µM, first compound 0.0316 µM
[13] = second compound 0.316 µM, first compound 0.1 µM
[14] = second compound 0.316 µM, first compound 0.316 µM
[15] = second compound 0.316 µM, first compound 1 µM
[16] = second compound 0.316 µM, first compound 3.16 µM
[17] = second compound 0.316 µM, first compound 10 µM
[18] = second compound 1 µM, first compound 0.0316 µM
[19] = second compound 1 µM, first compound 0.1 µM
[20] = second compound 1 µM, first compound 0.316 µM
[21] = second compound 1 µM, first compound 1 µM
[22] = second compound 1 µM, first compound 3.16 µM
[23] = second compound 1 µM, first compound 10 µM
[24] = second compound 3.16 µM, first compound 0.0316 µM
[25] = second compound 3.16 µM, first compound 0.1 µM
[26] = second compound 3.16 µM, first compound 0.316 µM
[27] = second compound 3.16 µM, first compound 1 µM
[28] = second compound 3.16 µM, first compound 3.16 µM
[29] = second compound 3.16 µM, first compound 10 µM
[30] = second compound 10 µM, first compound 0.0316 µM
[31] = second compound 10 µM, first compound 0.1 µM
[32] = second compound 10 µM, first compound 0.316 µM
[33] = second compound 10 µM, first compound 1 µM
[34] = second compound 10 µM, first compound 3.16 µM
[35] = second compound 10 µM, first compound 10 µM
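Also: spheroids exposed to agents for seven days before reading.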
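For viability, T/C in this document: 100% = DMSO vehicle wells so lower means fewer viable cells.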

| SMILES | IC50 [1] [µM] | IC50 [2] [µM] | IC50 [3] [µM] | IC50 [4] [µM] | viability, T/C [6] [%] | viability, T/C [7] [%] | viability, T/C [8] [%] | viability, T/C [9] [%] | viability, T/C [10] [%] | viability, T/C [12] [%] | viability, T/C [13] [%] | viability, T/C [14] [%] | viability, T/C [15] [%] | viability, T/C [16] [%] | viability, T/C [18] [%] | viability, T/C [19] [%] | viability, T/C [20] [%] | viability, T/C [21] [%] | viability, T/C [22] [%] | viability, T/C [24] [%] | also measured |
| --- | --- | --- | --- | --- | --- | --- | --- | --- | --- | --- | --- | --- | --- | --- | --- | --- | --- | --- | --- | --- | --- |
| Cn1nccc1Nc1nccc(-c2cc3c(s2)C(C)(C)N(CCN2CCOCC2)C3=O)n1 + C=CC(=O)N1CCN(c2nc(=O)n(-c3c(C)ccnc3C(C)C)c3nc(-c4c(O)cccc4F)c(F)cc23)C(C)C1 | 1.4 | 2.24 | 3.12 | 0.925 | 60.7 | 61.5 | 55.8 | 54.8 | 41.8 | 55.7 | 63.8 | 55.1 | 54 | 46.6 | 63 | 56.3 | 60.9 | 55.2 | 49.1 | 60.5 | IC50 [5]: < 0.0316 µM; viability, T/C [11]: 36.5%; viability, T/C [17]: 42.2%; viability, T/C [23]: 42.4%; viability, T/C [25]: 59.3%; viability, T/C [26]: 50.8%; viability, T/C [27]: 49.6%; viability, T/C [28]: 48.3%; viability, T/C [29]: 40.5%; viability, T/C [30]: 49.9%; viability, T/C [31]: 47.8%; viability, T/C [32]: 45.3%; viability, T/C [33]: 37.7%; viability, T/C [34]: 41.1%; viability, T/C [35]: 29.3% |
| CCNC(=O)CC1N=C(c2ccc(Cl)cc2)c2cc(OC)ccc2-n2c(C)nnc21 (configuration not stated) + CC1OCC2(CCN(c3cnc(Sc4ccnc(N)c4Cl)c(N)n3)CC2)C1N | 0.346 | 0.102 | < 0.0316 | < 0.0316 | 64.3 | 68 | 49.8 | 37.8 | 38.8 | 51.8 | 51.5 | 37.9 | 27.9 | 26.2 | 42 | 35.4 | 31.7 | 18.3 | 17.8 | 31.3 | IC50 [5]: < 0.0316 µM; viability, T/C [11]: 27.5%; viability, T/C [17]: 22.4%; viability, T/C [23]: 16.8%; viability, T/C [25]: 26.1%; viability, T/C [26]: 20.4%; viability, T/C [27]: 16.9%; viability, T/C [28]: 13.6%; viability, T/C [29]: 11.8%; viability, T/C [30]: 20.1%; viability, T/C [31]: 20.7%; viability, T/C [32]: 18.2%; viability, T/C [33]: 13.9%; viability, T/C [34]: 12%; viability, T/C [35]: 10.9% |
| COC(=O)c1ccc2c(C(=Nc3ccc(N(C)C(=O)CN4CCN(C)CC4)cc3)c3ccccc3)c(O)[nH]c2c1 + CNCc1ccccc1-c1csc(C(C)Nc2nc(C)nc3cc(OC)c(OC)cc23)c1 | 0.519 | 0.308 | 0.153 | < 0.0316 | 73.5 | 69.9 | 58.6 | 38.7 | 10.9 | 62.9 | 61.4 | 48.8 | 22.6 | 0.98 | 60.9 | 53 | 41.5 | 18.7 | 0.06 | 0.1 | IC50 [5]: < 0.0316 µM; viability, T/C [11]: 8.59%; viability, T/C [17]: 1.62%; viability, T/C [23]: 0.11%; viability, T/C [25]: 0.13%; viability, T/C [26]: 0.08%; viability, T/C [27]: 0.15%; viability, T/C [28]: 0.04%; viability, T/C [29]: 0.11%; viability, T/C [30]: 0.43%; viability, T/C [31]: 0.37%; viability, T/C [32]: 0.36%; viability, T/C [33]: 0.1%; viability, T/C [34]: 1.07%; viability, T/C [35]: 0.16% |
| CC1(C)CCC(CN2CCN(c3ccc(C(=O)NS(=O)(=O)c4ccc(NCC5CCOCC5)c([N+](=O)[O-])c4)c(Oc4cnc5[nH]ccc5c4)c3)CC2)=C(c2ccc(Cl)cc2)C1 | – | – | – | – | – | – | – | – | – | – | – | – | – | – | – | – | – | – | – | – | viability, T/C (compound 0.0316 µM): 101% [middle of 5 runs]; viability, T/C (compound 0.1 µM): 98.9% [middle of 5 runs]; viability, T/C (compound 0.316 µM): 99.3% [middle of 5 runs]; viability, T/C (compound 1 µM): 97.8% [middle of 5 runs]; viability, T/C (compound 3.16 µM): 74.3% [middle of 5 runs]; viability, T/C (compound 10 µM): 15.3% [middle of 5 runs]; IC50 (curve of compound): 4.81 µM [middle of 5 runs] |
| CC1COCCN1c1cc(-c2ccnn2C)c2ccnc(-c3ccn[nH]3)c2n1 (configuration not stated) + CNCc1ccccc1-c1csc(C(C)Nc2nc(C)nc3cc(OC)c(OC)cc23)c1 | 0.0235 | 0.0179 | 0.015 | < 0.01 | 39.5 | 9.19 | 5.57 | 5.53 | 5.04 | 33.8 | 11.5 | 5.05 | 5.87 | 5.3 | 26.7 | 9.86 | 4.09 | 3.98 | 1.03 | 0.07 | IC50 [5]: < 0.01 µM; viability, T/C (second compound 0.1 µM, first compound 0.01 µM): 80%; viability, T/C (second compound 0.316 µM, first compound 0.01 µM): 66.6%; viability, T/C (second compound 1 µM, first compound 0.01 µM): 62.9%; viability, T/C (second compound 3.16 µM, first compound 0.01 µM): 0.09%; viability, T/C [25]: 0.05%; viability, T/C [26]: 0.71%; viability, T/C [27]: 0.03%; viability, T/C [28]: 0.13%; viability, T/C (second compound 10 µM, first compound 0.01 µM): 0.13%; viability, T/C [30]: 0.13%; viability, T/C [31]: 0.13%; viability, T/C [32]: 0.12%; viability, T/C [33]: 0.12%; viability, T/C [34]: 0.21% |
| COC(=O)c1ccc2c(C(=Nc3ccc(N(C)C(=O)CN4CCN(C)CC4)cc3)c3ccccc3)c(O)[nH]c2c1 + C=CC(=O)N1CCN(c2nc(OCC3CCCN3C)nc3c2CCN(c2cccc4cccc(C)c24)C3)CC1CC#N | < 0.0316 | < 0.0316 | < 0.0316 | < 0.0316 | 45.9 | 42 | 37.1 | 13 | 7.74 | 49.2 | 41.6 | 29.6 | 14.4 | 5.46 | 38.6 | 21.5 | 16.4 | 9.18 | 0.69 | 0.33 | IC50 (curve of first compound, second compound 0.0316 µM): 0.142 µM; viability, T/C (second compound 0.0316 µM, first compound 0.0316 µM): 52.8%; viability, T/C (second compound 0.0316 µM, first compound 0.1 µM): 54.7%; viability, T/C (second compound 0.0316 µM, first compound 0.316 µM): 42.9%; viability, T/C (second compound 0.0316 µM, first compound 1 µM): 23.4%; viability, T/C (second compound 0.0316 µM, first compound 3.16 µM): 8.28%; viability, T/C (second compound 0.0316 µM, first compound 10 µM): 7.36%; viability, T/C [11]: 5.84%; viability, T/C [17]: 4%; viability, T/C [23]: 1.72%; viability, T/C [25]: 0.16%; viability, T/C [26]: 0.15%; viability, T/C [27]: 0.12%; viability, T/C [28]: 1.49%; viability, T/C [29]: 0.32% |
